Source: the METLIN SMRT retention time set (Domingo-Almenara et al. 2019)

Experiment: gradient 5% acetonitrile 3 min, to 50% in 2 min, to 85% in 15 min, held 3 min, 100 µL/min
Conditions: column: Zorbax Extend-C18 2.1 x 50 mm; eluents: water / acetonitrile, 0.1% formic acid
How it was run: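 Pure standards were run in mixtures of ~100 molecules by HPLC coupled to a quadrupole time-of-flight mass spectrometer. The column was a Zorbax Extend-C18 (2.1 × 50 mm, 1.8 μm) at 100 μL/min, with water and acetonitrile each containing 0.1% formic acid, in positive and negative ionization mode. Dead and dwell volumes were 40 μL and 900 μL. Retention time was taken from computationally picked adduct peaks, each manually inspected, with data collected over 3 months.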

SMILES	RP-LC retention time [s]
CN(C)C(=O)c1ccc2c(c1)nnn2CCNC(=O)Nc1cccc(Br)c1	678
CCOc1ccc(NC(=O)COc2cc(C(=O)OC)nc3ccc(OC)cc23)cc1	817
CC(=O)Nc1ccc(N2CCN(C3CCCCC3)CC2)cc1C(=O)O	588
O=C(CSc1cc(NCc2ccccc2Cl)ncn1)NC1CCCC1	794
O=C(Nc1cccc(C(=O)N2CCN(c3cccc(Cl)c3)CC2)c1)C1=CSCCO1	953
CC(=O)N1CCc2cc(N3CC(C(=O)Nc4cccc(Br)c4)CC3=O)ccc21 (centres undefined)	780
O=C(NCCc1ccccc1)c1nc(Cn2c(=O)oc3ccc(Cl)cc32)no1	966
COc1ccc(CCNC(=O)C2CCN(S(C)(=O)=O)c3ccccc3O2)cc1 (centres undefined)	828
Cc1ccc(CC(=O)N2CCC3(CC2)NC(=O)c2cc(F)ccc2N3C)cc1	804
CCOC(=O)C1=C(C)NC(=O)NC1c1cn(-c2ccccc2)nc1-c1ccc(OC)cc1 (centres undefined)	842
Cc1ccc2nc3c(c(C(=O)NC4CC4)c2c1)CCCC3	584
COc1ccc(OCc2nc(C3CN(C(=O)C4(c5ccccc5)CC4)C3)no2)cc1	904
Cc1ccc2nc(C(=O)N3CCN(c4cccc(C)c4C)CC3)cn2c1	804
Cc1cc(=O)n(CC(=O)Nc2ccc(F)c(Cl)c2)c(-c2ccccc2)n1	1090
CCOC(=O)c1[nH]c(C)c(C(=O)N2CCC(CC(=O)NC(C)C)CC2)c1C	643
Cc1cccc(N2CCN(C(=O)c3ccc(Cn4cncn4)cc3)CC2C)c1 (centres undefined)	676
NC(=O)C1Cc2ccccc2N1C(=O)c1ccc([N+](=O)[O-])o1 (centres undefined)	633
CCCCCN1CC(=O)N(c2ccc(OC)cc2)[C@@H]2CS(=O)(=O)C[C@@H]21	708
O=C(NCCC1=CCCCC1)c1nc(Nc2ccccc2)c2ccccc2n1	960
COc1ccc(-c2noc(C3CCCN3C(=O)c3ccc4c(c3)OCO4)n2)cc1OC (centres undefined)	836
CCN(CC)CCCNC(=O)c1cc2n(n1)CC(C)(C(=O)NCc1ccccc1)N(C)C2=O (centres undefined)	581
CC(=O)NCc1nc(-c2ccc3oc(-c4ccccc4)nc3c2)no1	805
O=C(CCc1nc(CSc2nnc(-c3ccccc3)o2)no1)Nc1ccc(F)c(Cl)c1	973

SMILES	RP-LC retention time [s]
CN(C)C(=O)c1ccc2c(c1)N(CC(=O)NC1CCCCC1)C(=O)C1CCCCN21 (centres undefined)	743
Cc1cccc(NC(=O)Cn2c(C)nc(C)c(C)c2=O)c1C	641
Cc1noc([C@@H]2CN(C(=O)c3cc(C)oc3C)C[C@H]2CO)n1	640
Cc1ccc(NC(=O)C2CCCN(C(=O)C3Sc4ccccc4NC3=O)C2)cc1C (centres undefined)	862
Cc1ccccc1C(=O)N1CCc2c(c(-c3nc(C4CC4)no3)nn2C)C1	801
Cc1ccccc1NC(=O)N1CCC(CCNC(=O)C2(c3ccccc3)CC2)CC1	873
O=C(NCc1ccccn1)C1CCN(C(=O)c2ncn3c2COC(c2ccc(Cl)cc2)C3)CC1 (centres undefined)	644
Cn1c(=O)n(C)c2cc(CNc3ccc(N4CCOCC4)c(Cl)c3)ccc21	811
O=C(COc1ccccc1)N1CCN(Cc2noc3ccccc23)CC1	708
CCOc1ccccc1-c1nc(-c2ccc3ncn(C)c3c2)no1	747
CC1CCN(C(=O)C2CC(=O)N(CCc3c[nH]c4ccc(Cl)cc34)C2)CC1 (centres undefined)	855
CCNc1cc(N2CCC(CCC(=O)N3CCN(c4ncccn4)CC3)CC2)ncn1	626
O=C(Nc1cnc(N2CCCCCC2)nc1)c1cccs1	859
CNC(=O)[C@@H](NC(=O)[C@H](CC(C)C)[C@H](O)C(=O)NO)C(C)(C)C	620
COCCN1CCC(CNC(=O)C(=O)Nc2cccc(SC)c2)CC1	563
CCc1nnc(NC(=O)c2ccc(N3C(=O)CCC3=O)cc2)s1	627
CCN(CC)S(=O)(=O)c1cccc(-c2nnc(-c3ccc(Cl)cc3)o2)c1	1140
O=C(C1CCN(c2cnc3nccnc3c2)CC1)N1CCN(c2ccccn2)CC1	570
CC(C)c1ccc(NC(=O)C(=O)NCC2(CO)CC2)cc1	797
Cc1ccc(-c2cn3cc(C(=O)NC(C)c4cccnc4)ccc3n2)cc1 (centres undefined)	571
COc1cccc(S(=O)(=O)NCc2ccc(C(=O)Nc3cccc(Cl)c3)cc2)c1	922
CCOc1ccc(CN2C[C@@H](COC)[C@H](c3ccncc3)C2)cc1OC	560
CCN1C(=O)CCc2cc(NS(=O)(=O)c3cccc(C)c3)ccc21	788

SMILES	RP-LC retention time [s]
CC(C)Cc1ccc(S(=O)(=O)N2CCN(c3ccccn3)CC2)cc1	840
Cc1ccc(-c2nc(-c3ccc4nnc(C)n4c3)no2)cc1	968
CN(C)C(CNC(=O)c1ccc(Br)o1)c1cn(C)c2ccccc12 (centres undefined)	578
COc1ccc(NC(=O)C2CCc3sc(C(=O)N4CCCC4)cc3C2)c(OC)c1 (centres undefined)	756
Cc1cccc(-c2noc(C3CCCN3S(=O)(=O)c3cccc(Cl)c3C)n2)c1 (centres undefined)	1310
O=c1cc(Cn2nc3c(-c4nc(-c5ccccc5)no4)cccn3c2=O)nc2ccccn12	740
Cc1nn(CC(=O)NCCN(C)C)c(=O)c2cc(-c3ccccc3)nn12	625
O=C(c1ccc(N2CCCC2)c(S(=O)(=O)N2CCCC2)c1)N1CCN(c2ccccn2)CC1	664
CCN(CC)CCNC(=O)CCc1c(-c2ccc(Cl)cc2)nc2ccccn12	558
COCC1CN(S(=O)(=O)c2ccc(C#N)cc2)CC12CCNCC2 (centres undefined)	608
COc1ccc(-c2nnc3sc(-c4ccc(N(C)C)cc4)nn23)cc1	1200
COCCc1noc(-c2cnc3nc(C)ccc3c2Nc2cccc(Cl)c2)n1	763
Cc1ccc(CNC(=O)C2(C)CCC(=O)N2CCc2c[nH]c3ccccc23)cc1 (centres undefined)	805
Cc1sc(NC(=O)c2ccc(COc3ccc(F)cc3)o2)nc1-c1ccccc1	1180
O=C(NCc1ccc2c(c1)OCO2)C1CC(=O)N(CCc2c[nH]c3ccc(F)cc23)C1 (centres undefined)	766
O=C(O)c1cnc(NCc2ccncc2)nc1-c1ccccc1	570
COc1ccc(OCC(=O)N2CCCC2c2nc(-c3ccc(OC)cc3)no2)cc1 (centres undefined)	934
COC(=O)c1cccc(NC(=O)CSc2cc(N3CCN(c4ccc(OC)cc4)CC3)ncn2)c1	905
Oc1cccc(-c2nc3cnccn3c2Nc2ccc(F)cc2)c1	728
Cc1ccc(C)c(-c2cn3ccn(-c4cccc(F)c4)c(=O)c3n2)c1	892
O=C(Cn1ccnc1-c1ccnc(N2CCSCC2)c1)NCc1ccc(Cl)cc1	674
CN1C(=O)CSc2cnn(CC(=O)NC3CCCCC3)c(=O)c21	646
COC(=O)C1=C(C)NC2=C(C(=O)c3ccccc32)C1c1ccccc1OC (centres undefined)	901

SMILES	RP-LC retention time [s]
C=CCN1C(=O)COc2ccc(-c3csc(NC(=O)/C=C/c4ccc(OCC)c(OC)c4)n3)cc21	1050
Cc1ccc(-n2ncc3c(=O)n(Cc4nc(-c5ccc(Cl)c(F)c5)no4)cnc32)cc1	1210
Cc1cccc(CN2N=C(C(=O)N3CCCC3)S(=O)(=O)c3ccccc32)c1	892
O=C(NCC1CC1)c1c(-c2ccccc2)cc(=O)n2c1CCC2	660
COc1ccccc1CC(=O)N1CCN(c2ncnc3c2CCC3)CC1	621
COc1ccc2[nH]c(=O)c(CCC(=O)NCCCOC(C)C)cc2c1	649
Cc1cc(=O)n(CC(=O)Nc2cccc(C#N)c2)c(-c2ccc(F)cc2)n1	995
NC(=O)C1CCN(C(=O)NC2CCCCC2)CC1	584
CC1(C)CC(=O)C2=C(C1)Nc1ccccc1N(CC(=O)NC1CCCC1)C2c1ccc(F)cc1 (centres undefined)	863
Cc1ccc(-c2nc(-c3ccc4nnn(C)c4c3)no2)c(C)c1	1170
Cc1ccc(S(=O)(=O)N2CCCC(CCC(=O)NC3CCCCC3)C2)cc1 (centres undefined)	956
CCCn1c(=O)sc2cc(S(=O)(=O)N3CCC(C(=O)Nc4cc(C)ccc4C)CC3)ccc21	985
COCCN1C(=O)[C@H]2CN(Cc3ccccc3C(F)(F)F)C[C@H]2C1=O	849
Cc1cc(N(C)C)n2nc(CN3CCN(c4cccc(Cl)c4)CC3)nc2n1	635
Cc1ccc(-c2c(N3CCN(c4ccccn4)CC3)c(=O)c2=O)cc1	660
CCCn1c(=O)c(N2CCC(NC(=O)Nc3ccc4c(c3)OCCO4)CC2)nc2ccccc21	933
Cc1ccc(-c2nc(CN3CCCC3=O)no2)cc1	782
COc1cncc(C(=O)Nc2cc(F)ccc2Cl)c1	766
Cn1cc(C2=CCN(S(=O)(=O)c3ccc(F)cc3)CC2)c2cccnc21	949
COc1ccc(CNC(=O)C2CCCN(c3ccc(=O)n(-c4cccc(Cl)c4)n3)C2)c(OC)c1 (centres undefined)	876
